Literature values as cited in US20220151901A1, “A METHOD OF COLORING KERATINOUS MATERIAL COMPRISING THE USE OF AN ORGANOSILICON COMPOUND, A COLORING COMPOUND, AND A MIXTURE OF SILICONES” (Henkel AG & Co. KGaA, priority 2019, published 2022).

Settings: 25° C.

SMILES	solubility in water (in words)	solubility in water
O=C([O-])C1=NN(c2ccc(S(=O)(=O)[O-])cc2)C(=O)C1N=Nc1ccc(S(=O)(=O)[O-])cc1.[Na+].[Na+].[Na+] (centres unmarked) [Acid Yellow 23, trisodium salt of 4,5-dihydro-5-oxo-1-(4-sulfophenyl)-4-((4-sulfophenyl)azo)-1H-pyrazole-3-carboxylic acid]	highly soluble	
CCN(Cc1cccc(S(=O)(=O)[O-])c1)c1ccc(C(=C2C=CC(=[N+](CC)Cc3cccc(S(=O)(=O)[O-])c3)C=C2)c2ccccc2S(=O)(=O)[O-])cc1.[Na+].[Na+] [Acid Blue 9]		more than 20 % by weight
O=C([O-])c1c(Cl)c(Cl)c(Cl)c(Cl)c1-c1c2c(Br)cc(=O)c(Br)c-2oc2c(Br)c(O)cc(Br)c12.O=C([O-])c1c(Cl)c(Cl)c(Cl)c(Cl)c1-c1c2c(Br)cc(=O)c(Br)c-2oc2c(Br)c(O)cc(Br)c12.[Na+].[Na+] [Acid Red 92, disodium salt of 3,4,5,6-tetrachloro-2-(1,4,5,8-tetrabromo-6-hydroxy-3-oxoxanthen-9-yl)benzoic acid]		greater than 10 g/L
O=S(=O)([O-])c1ccc(N=Nc2c(O)ccc3ccccc23)cc1.[Na+] [Acid Orange 7, sodium salt of 4-[(2-hydroxy-1-naphthyl)azo]benzene sulphonate]		more than 7 g/L
Nc1cc(S(=O)(=O)[O-])cc2cc(S(=O)(=O)[O-])c(N=Nc3ccccc3)c(O)c12.[Na+].[Na+] [Acid Red 33, disodium salt of 5-amino-4-hydroxy-3-(phenylazo)-naphthalene-2,7-disulphonate]		2500 µg/mL
